In patent US20060052283A1, “The Sperm Binding Ligand HIPRTY and Its Involvement in Embryo Cleavage” (priority 2004, published 2006):

Tested on: mouse sperm
Assay: Phage combinatorial peptide library screening of intact live sperm
Conditions: live CB6F1 mouse sperm, 4 rounds of binding, amplification and selection, Ph.D-7 and Ph.D-12 libraries
Experimental: A mouse sperm suspension was isolated from cauda epididymides of fertile male CB6F1 mice. Briefly, the epididymides and vas deferens were dissected in a 35 mm dish containing 5 ml of CZB (pre-equilibrated at 37° C. and 5% CO2) and gently compressed to release sperm. Following a 10 minute incubation period, the epididimydes were removed and the sperm suspension incubated for a further 30 minute period. A 500 ul aliquot of the sperm suspension was removed from the top layer of media and placed in a 1.5 ml centrifuge tube. A 3 ul volume of phage combinatorial peptide library was added to this tube and the suspension incubated for 1 hour at 37 degrees. Following incubation, the sperm suspension was washed as follows. The suspension was centrifuged in a tabletop microcentrifuge at maximum speed for 1 minute and the majority of the supernatant removed. The remaining volume was re-suspended in 1 ml of media via pipetting and separated into two 500 ul aliquots in two 15 ml centrifuge tubes. A further 14 ml of CZB wash media was added to these tubes followed by 15 min incubation at room temperature. The tubes were centrifuged at 1000 g for 5 minutes and the supernatant removed down to an approximate 50 ul volume. […]
Phage DNA was isolated by several different methods. […] DNA quality and quantity was determined via agarose gel electrophoresis on vertical mini-gels with novel illumination and filters. […]

Question: With HIPRTY as the substance, how does the “binding sequence selected from combinatorial libraries” value read?
Answer: binding sequence of mouse sperm
